Data on two substances can be found in patent publication US20220111044A1, “WHOLE CELL TUMOR VACCINES AND METHODS OF USE THEROF” (CHILDREN'S NATIONAL MEDICAL CENTER, priority 2019, published 2022).

Assay [1] has as its system PD-L1 on SK-N-SH, SH-SY5Y and IMR-32 cells. Briefly: PD-L1 expression after IFNγ stimulation, human neuroblastoma cell lines. Type of assay: cell-based. An excerpt: (§1) The expression of PD-L1 on human neuroblastoma cell lines SY5Y and SK-N-SH (non-NMYC amplified) had similar changes with exposure to IFNγ. […] Representative tumors were dissected from naïve mice (I, V, IX, and XIII) and from mice after receipt of Id2kd vaccine (II, VI, X, and XIV), Id2kd plus PD-L1 antibody (III, VII, XI, and XV), and Id2kd plus CTLA-4 antibody (IV, VIII, XII, and XVI). Hematoxylin and eosin (H&E) staining (I±VIII) and immunofluorescence double staining (IX-XVI) for CD3 and PD-L1 were performed. The nuclei were stained with 4′,6-diamidino-2-phenylindole (DAPI). Representative micrographs from each cohort are shown. Areas of necrotic tissues are marked with black broken lines and coincide with areas of inflammatory cell infiltrates. Panel 1 (I-IV) and panel 3 (IX-XII) are 40× and 100× original magnification, respectively. […]
(§2) FIGS. 5A and 5B show PD-L1 is expressed at 3.7-fold-lower levels on aggressive mouse neuroblastoma cell line AgN2a, as evidenced by flow cytometry (FIG. 5A) and real-time quantitative PCR (RT-qPCR) (p<0.005, Student t test; FIG. 5B). […]
(§3) A possible explanation may be the differential constitutive expression of PD-L1 by tumor cells. […] The response of PD-L1 expression to IFNγ stimulation was also determined.

The subject of assay [2] is PD-L1 on Neuro2a and AgN2a cells. Briefly: PD-L1 surface expression after IFNγ stimulation, mouse neuroblastoma cell lines (flow cytometry). Format: cell-based.
From the text: as §1, with “infiltrates.” for “infiltrates. Panel 1 (I-IV) and panel 3 (IX-XII) are 40× and 100× original magnification, respectively.”
as §2
Cells from mouse tumor digests and mouse splenocytes were stained with the fluorescently conjugated antibodies described above. […] Data were analyzed using the FlowJo program (Treestar, Ashland, Oreg.). […]
as §3

For the next assay, the system named is ApoE. Briefly: IFNγ ELISA of splenocytes cocultured with Myc-suppressed irradiated B16 cells with ApoE agonist or anti-ApoE antibody. Format: cell-based, mouse. Here is the method:
IFNγ was measured at 48 hours of culture (pg/ml). S: splenocytes; NS: naïve splenocytes; VS: vaccinated splenocytes; S1S: splenocytes dissected from survivor mouse; Treated: B16 cells expose to 0.25 μM BET/0.25 μM JQ1 for 4 days.
IFNγ production was quantified by ELISA at 48 hours.

Turning to IFNγ, the PD-L1 up-regulation entry is recorded as “failed to up-regulate PD-L1” in assay [1] (MYCN-amplified IMR-32, highest concentrations tested) and “failed to up-regulate PD-L1” in assay [2] (AgN2a, highest concentrations tested). For the same substance, the PD-L1 expression entry in assay [1] (SK-N-SH and SH-SY5Y (non-MYCN amplified), increasing doses) is recorded as “rises markedly”. For the same substance, in assay [2] (Neuro2a, 24 hours of stimulation), the PD-L1 surface expression result is “increase in a dose-dependent manner”.

In the case of “LRVRLASHLRKLRKRLL (SEQ ID NO: 1) (COG133) [ApoE agonist peptide fragment]”, in the assay with ApoE (0.3, 3 and 9 μM, 48 hours, ELISA, FIG. 10A), the “IFNγ production, fold reduction” value was found to be 6 fold reduction. Also, in the assay on ApoE (48 hours of culture, FIGS. 10A and 10B), the “IFNγ secretion from splenocytes” value was “significantly suppressed in a dose dependent manner”. Further, in the assay on ApoE (co-culture with vaccinated splenocytes), the “TNFα and Rantes production” value is “repressed”.
